Patent US12220404B2, “Treatment and management of augmentation in restless legs syndrome” (East Carolina University, priority 2015, dated 2025)
Entries after “also recorded” stand apart in the source; their conditions may differ.

Assays:
[1] = tested on: isolated spinal cord (monosynaptic stretch reflex); assay: Spinal reflex amplitudes (SRAs) in the isolated spinal cord; design: species or system mice
Procedure: Animals will be anesthetized with ketamine/xylazine and decapitated, and the spinal cord carefully dissected out of the body cavity and placed in a Sylgard-lined (Dow Corning, Midland MI) Petri dish in cooled (<4° C.) artificial cerebrospinal fluid (ACSF) containing (in mM); 125 NaCl, 2.5 KCl, 2 CaCl2, 1 MgCl2, 25 glucose, 1.25 NaH2PO4, and 26 NaHCO3 at a pH of 7.4, oxygenated with 95% O2-5% CO2. After opening and removing the dura mater, to facilitate the access of ACSF to the cord, dorsal and ventral roots will be identified and pinned out with small insect pins. Preparations will either be left intact (in animals less than 7 days old) or hemisected mid-sagittally (>1 week old animals). The hemisection in the older animals helps better oxygenate the tissue and extends the life expectancy of the isolated preparation. Under these conditions, we can hold the spinal cord functionally alive for more than 24 hours, and we have been able test SRAs in individual preparations for up to 48 hours. After a 30-60 min recovery at room temperature, glass suction electrodes will be placed on the distal parts of dorsal and ventral roots of lumbar segments L2-L5. […] For the analyses, reflex responses will be rectified and the calculated integrals of these responses measured and compared between epochs of identical duration before and after drug application. For short-term assessments of drug effects, we will average the last ten consecutive SRAs measured before drug application with the last ten consecutive SRAs after 30 min of application of the drugs per epoch. […]
Statistical Analysis: For the experiments on the isolated spinal cords, we will measure SRAs under control and drug conditions, and data will be averaged and normalized to the mean of the pre-drug values. Statistical significance will be determined with One-Way ANOVA and subsequent post-hoc comparisons or t-tests, as appropriate, and with a set <0.05 (SigmaPlot, Systat, San Jose, CA).

wild type (WT) animals = assay: Thermal pain withdrawal reflex latencies (Hargreaves apparatus); format: in vivo, mice; details: for thermal withdrawal latencies: WT, pramipexole 0.5 mg/kg, SCH 39166 0.1 mg/kg
Procedure: Assessment of baseline pain withdrawal reflex latencies (“thermal pain”): RLS is first and foremost a sensory disorder that is accompanied by a motor component. The clinical sensations (“urge to move”) stem from deep muscle tissues and are considered “painful” by many, if not most patients, unless acted on immediately (moving of the limbs). Pain from deep muscles is carried by both unmyelinated C-fibers (both peptidergic and non-peptidergic) as well as a-∂ fiber. Pain due to thermal stimulus energy is carried specifically by subsets of these nociceptors that express the transient receptor potential-V1 protein (TRPV1). These TRPV1 expressing nociceptors also have extensive cutaneous distribution and are easily activated by a heat source applied to the surface of the skin. Thus the thermal pain stimulus tested in the Hargreaves apparatus (IITC, Inc., Life Science, Model 39D) provides an appropriate surrogate for monitoring changes in deep muscle nociceptor activity that may be present in RLS, and the latencies to withdraw the hindpaw from a noxious thermal stimulus applied to the plantar surface of the hindpaw provide a measure of pain sensitivity. Animals will be removed from their home cages and placed individually in the small Plexiglas containers of the Hargreave's system (4″ width×4″ length×5″ height). The behavior room has optional low light settings to minimize visual perturbations. Each day, animals will be acclimatized on the Hargreaves platform for 1-2 hrs. Subsequently, baseline withdrawal latencies will be determined for each animal, with five independent trials performed per hindpaw per session and a mean latency calculated for each day. The tests will be administered over 4 days.
Drug injection protocol: After establishing baseline parameters, each animal will receive in weeks 1-4 once daily a single-drug i.p. injection of the respective compound: 0.9% NaCl (sham), the D3R agonist (pramipexole) at 0.1 or 0.5 mg/kg, or the D1R antagonist ecopipam ([…]) at 0.1 mg/kg, and tested for thermal pain withdrawal tolerance (details in flow chart, FIG. 5). […] Each cohort will be treated independently of each other, but all animals will receive their respective i.p. injections daily (7 days/week) between 9-11 am in the morning, to avoid possible conflicts with the circadian cycle. Thermal pain withdrawal reflexes will be tested as above on 4 subsequent days per week in the afternoon, starting on the second day of the drug injections. Subgroups a) of each cohort will be euthanized after 1 week, with subgroups b)-d) following suite in 1-week intervals (FIG. 5).
Statistical Analysis: For the behavioral experiments, withdrawal latencies under drug conditions will be averaged and normalized to the mean of the pre-drug values, and statistical significance will be determined with RM ANOVA and subsequent post-hoc comparisons, as appropriate, and with a set <0.05 (SigmaPlot, Systat, San Jose, CA). For the data analysis of the Western blots, we will use One-way ANOVA testing to assess significance, and identify group differences with appropriate post-hoc comparisons (e.g. Holm-Sidak).

[2] = short-term bath application (less than 30 min)

CCCN1C[C@H](CSC)C[C@@H]2c3cccc4[nH]cc(c34)C[C@H]21 [pergolide]
spinal reflex amplitudes (SRAs) [1, 2]: significantly decreased SRAs; also recorded: significantly decreases SRAs over control

CCCN[C@H]1CCc2nc(N)sc2C1 [pramipexole]
thermal withdrawal latencies (wild type (WT) animals; acute treatment): 152.9+/−2.8 % of control
post-injection withdrawal latencies (wild type (WT) animals; after 4 weeks of daily injections with pramipexole, 1 hr post-injection): 75.2+/−32%
post injection withdrawal latencies (wild type (WT) animals; week 1, one hour after the first injection, 0.5 mg/kg pramipexole): 194.65%±27
withdrawal latencies to a thermal stimulus, weekly average (wild type (WT) animals; week 1, pramipexole 0.5 mg/kg/day chronic injections): 204.81%±6.3 % of control
withdrawal latencies to a thermal stimulus, weekly average (wild type (WT) animals; week 2, pramipexole 0.5 mg/kg/day chronic injections): 158+/−12 % of control
withdrawal latencies to a thermal stimulus, weekly average (wild type (WT) animals; week 3, pramipexole 0.5 mg/kg/day chronic injections): 135+/−6.5 % of control
withdrawal latencies to a thermal stimulus, weekly average (wild type (WT) animals; week 4, pramipexole 0.5 mg/kg/day chronic injections): 85+/−11 % of control

CN1CCc2cc(Cl)c(O)cc2[C@H]2c3ccccc3CC[C@@H]21 [SCH 39166, ecopipam]
spinal reflex amplitudes (SRAs) ([1]; additional bath-application after prolonged pramipexole exposure): decreased
thermal withdrawal latencies (wild type (WT) animals; acute treatment): 131+/−6.5 % of control
acute modulation of thermal withdrawal responses (FIG. 2) (wild type (WT) animals; acute treatment, result in words): increase withdrawal latencies
withdrawal latencies after single injection of D1R antagonist (wild type (WT) animals; animals treated for 4 weeks with pramipexole, 1 hour post-injection): 150.+/−15%
long-term effect on withdrawal latencies (wild type (WT) animals; daily for 4 weeks, current data sets, result in words): does not have a significant effect
withdrawal latencies after single injection of D1R antagonist (wild type (WT) animals; non-treated group, week 1, one hour after the injection): 151 +/−13%

Oc1cc2c(cc1O)C(c1ccccc1)CNCC2 (stereo not drawn) [SKF 38393]
spinal reflex amplitudes (SRAs) [1, 2]: significantly increased them; also recorded: increases SRAs
